Source: patent publication US10123993B2, “Cyclic ureas as inhibitors of rock” (BRISTOL-MYERS SQUIBB COMPANY, priority 2015, dated 2018)
Where a name gives a salt, the structure may show the parent alone.

Biological target: ROCK2 (Homo sapiens, UniProt O75116)
Assay: ROCK2 kinase inhibition assay (Caliper LABCHIP, FITC peptide substrate)
Assay type: biochemical
Details: 5 μM ATP, 1.5 μM peptide substrate; value ranges
Method: The effectiveness of compounds of the present invention as ROCK inhibitors can be determined in a 30 μL assay containing 20 mM HEPES, pH 7.5, 20 mM MgCl2, 0.015% Brij-35, 4 mM DTT, 5 μM ATP and 1.5 μM peptide substrate (FITC-AHA-AKRRRLSSLRA-OH). Compounds were dissolved in DMSO so that the final concentration of DMSO was <2%, and the reaction was initiated with Rho kinase variants. After incubation, the reaction was terminated by the addition of EDTA and the phosphorylated and non-phosphorylated peptides separated using a LABCHIP® 3000 Reader (Caliper Life Sciences). […] Compounds were tested in dose-response format, and the inhibition of kinase activity was calculated at each concentration of compound. The inhibition data were fit using a curve-fitting program to determine the IC50; i.e., the concentration of compound required to inhibit 50% of kinase activity.
Representative Examples were tested in the ROCK2 assay described above and found having ROCK inhibitory activity.

Chain of ROCK2 (O75116 whole entry, species assumed): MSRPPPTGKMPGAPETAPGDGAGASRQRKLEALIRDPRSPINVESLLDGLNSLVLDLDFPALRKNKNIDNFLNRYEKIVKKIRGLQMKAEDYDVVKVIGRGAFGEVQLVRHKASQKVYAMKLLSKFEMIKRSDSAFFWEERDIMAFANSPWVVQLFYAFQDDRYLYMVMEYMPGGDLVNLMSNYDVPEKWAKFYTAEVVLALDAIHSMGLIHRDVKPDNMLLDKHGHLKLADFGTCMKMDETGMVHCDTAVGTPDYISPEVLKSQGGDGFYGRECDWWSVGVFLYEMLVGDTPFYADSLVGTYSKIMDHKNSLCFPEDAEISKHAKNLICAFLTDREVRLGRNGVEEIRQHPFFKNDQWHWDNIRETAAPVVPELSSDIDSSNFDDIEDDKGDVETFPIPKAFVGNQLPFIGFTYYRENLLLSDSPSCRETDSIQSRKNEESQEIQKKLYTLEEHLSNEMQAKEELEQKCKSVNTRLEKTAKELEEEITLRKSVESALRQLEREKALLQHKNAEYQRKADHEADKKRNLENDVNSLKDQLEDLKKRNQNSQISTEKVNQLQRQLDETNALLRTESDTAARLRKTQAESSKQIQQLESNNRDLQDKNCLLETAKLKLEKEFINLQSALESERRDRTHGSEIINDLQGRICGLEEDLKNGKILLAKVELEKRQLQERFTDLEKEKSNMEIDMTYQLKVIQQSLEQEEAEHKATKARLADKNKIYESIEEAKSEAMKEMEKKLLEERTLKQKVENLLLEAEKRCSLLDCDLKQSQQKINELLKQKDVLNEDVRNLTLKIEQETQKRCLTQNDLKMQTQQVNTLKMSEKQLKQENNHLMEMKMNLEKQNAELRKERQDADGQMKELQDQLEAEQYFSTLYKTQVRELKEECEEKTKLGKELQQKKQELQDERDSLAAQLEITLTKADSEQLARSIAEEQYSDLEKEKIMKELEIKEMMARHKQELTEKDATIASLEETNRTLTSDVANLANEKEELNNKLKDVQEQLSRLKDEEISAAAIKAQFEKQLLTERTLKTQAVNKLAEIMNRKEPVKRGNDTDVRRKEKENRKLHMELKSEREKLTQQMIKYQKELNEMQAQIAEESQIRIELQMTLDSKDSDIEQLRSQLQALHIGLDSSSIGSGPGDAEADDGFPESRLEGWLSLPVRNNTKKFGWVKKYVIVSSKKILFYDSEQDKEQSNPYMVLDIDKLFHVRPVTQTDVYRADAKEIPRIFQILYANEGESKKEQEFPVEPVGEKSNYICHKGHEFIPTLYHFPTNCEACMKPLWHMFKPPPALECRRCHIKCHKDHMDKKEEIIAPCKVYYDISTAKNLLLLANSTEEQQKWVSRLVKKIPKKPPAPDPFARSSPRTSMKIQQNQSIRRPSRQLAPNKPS

Row | Compound | IC50 [nM]
1 | O=C1N(CCc2ccccc2)CCN1c1ccc(-c2cn[nH]c2)cc1 [Example 1, 1-(4-(1H-Pyrazol-4-yl)phenyl)-3-phenethylimidazolidin-2-one] | 2.1 to 20
2 | COc1cc(-c2cn[nH]c2)ccc1N1CCN(Cc2ccccc2)C1=O [Example 12, 1-Benzyl-3-(2-methoxy-4-(1H-pyrazol-4-yl)phenyl)imidazolidin-2-one] | 200 to 2000
3 | O=c1n(Cc2cccc(F)c2F)ccn1-c1ccc(-c2cn[nH]c2)cc1 [Example 406, 1-(4-(1H-pyrazol-4-yl)phenyl)-3-(2,3-difluorobenzyl)-1H-imidazol-2(3H)-one] | 20.1 to 200
4 | COc1nc(N2CCN(CC3CCCCC3)C2=O)ccc1-c1cn[nH]c1 [Example 227, 1-(cyclohexylmethyl)-3-(6-methoxy-5-(1H-pyrazol-4-yl)pyridin-2-yl)imidazolidin-2-one] | 2.1 to 20
5 | COc1cc(F)cc(C(C)n2ccn(-c3ccc(-c4cn[nH]c4)cc3)c2=O)c1 (single isomer, unassigned) [Example 367, 1-(4-(1H-pyrazol-4-yl)phenyl)-3-(1-(3-fluoro-5-methoxyphenyl)ethyl)-1H-imidazol-2(3H)-one] | 20.1 to 200
6 | COc1nc(N2CCN(Cc3cccc(F)c3C)C2=O)ccc1-c1cn[nH]c1 [Example 248, 1-(3-fluoro-2-methylbenzyl)-3-(6-methoxy-5-(1H-pyrazol-4-yl)pyridin-2-yl)imidazolidin-2-one] | < 2
7 | COc1cc(CN2C(=O)N(c3ccc(-c4cn[nH]c4)cn3)CC2(C)C)ccc1F [Example 450, 1-(5-(1H-pyrazol-4-yl)pyridin-2-yl)-3-(4-fluoro-3-methoxybenzyl)-4,4-dimethylimidazolidin-2-one] | 2.1 to 20
8 | COc1cccc(CN2CCN(c3ccc(-c4cn[nH]c4)c(F)c3)C2=O)c1 [Example 430, 1-(3-fluoro-4-(1H-pyrazol-4-yl)phenyl)-3-(3-methoxybenzyl)imidazolidin-2-one] | 2.1 to 20
9 | O=C1N(Cc2ccc(F)c(F)c2)CCN1c1ccc(-c2cn[nH]c2)cn1 [Example 238, 1-(5-(1H-pyrazol-4-yl)pyridin-2-yl)-3-(3,4-difluorobenzyl)imidazolidin-2-one] | 200 to 2000
10 | COc1cc(N2CCN(Cc3ccccc3-c3cn[nH]c3)C2=O)ccc1-c1cn[nH]c1 [Example 31, 1-(2-(1H-Pyrazol-4-yl)benzyl)-3-(3-methoxy-4-(1H-pyrazol-4-yl)phenyl)imidazolidin-2-one, TFA] | 20.1 to 200
11 | COc1cccc(Cn2ccn(-c3ccc(-c4cn[nH]c4)c(OC)n3)c2=O)c1 [Example 376, 1-(6-methoxy-5-(1H-pyrazol-4-yl)pyridin-2-yl)-3-(3-methoxybenzyl)-1H-imidazol-2(3H)-one] | < 2
12 | COc1cc(F)cc(C(C)N2CCN(c3ccc(-c4cn[nH]c4)cc3)C2=O)c1 (single isomer, unassigned) [Example 197, 1-(4-(1H-pyrazol-4-yl)-phenyl)-3-(1-(3-fluoro-5-methoxy-phenyl)ethyl) imidazolidin-2-one] | < 2
13 | CCc1nc(N2CCN(Cc3ccc(F)c(OC)c3)C2=O)ccc1-c1cn[nH]c1 [Example 170, 1-(6-ethyl-5-(1H-pyrazol-4-yl)pyridin-2-yl)-3-(4-fluoro-3-methoxy-benzyl) imidazolidin-2-one] | 2.1 to 20
14 | COc1cccc(CN2CC(=O)N(c3ccc(-c4cn[nH]c4)cc3)C2=O)c1 [Example 80, 3-(4-(1H-Pyrazol-4-yl)phenyl)-1-(3-methoxybenzyl)imidazolidine-2,4-dione] | 20.1 to 200
15 | CCc1nc(-n2ccn(C(C)c3cc(F)cc(OC)c3)c2=O)ccc1-c1cn[nH]c1 (single isomer, unassigned) [Example 362, 1-(6-ethyl-5-(1H-pyrazol-4-yl)pyridin-2-yl)-3-(1-(3-fluoro-5-methoxyphenyl)ethyl)-1H-imidazol-2(3H)-one] | < 2
16 | COc1nc(-n2ccn(Cc3cccc(F)c3)c2=O)ccc1-c1cn[nH]c1 [Example 413, 1-(3-fluorobenzyl)-3-(6-methoxy-5-(1H-pyrazol-4-yl)pyridin-2-yl)-1H-imidazol-2(3H)-one] | < 2
17 | COc1cccc(C(C)n2ccn(-c3ccc(-c4ccncc4F)cc3)c2=O)c1 (single isomer, unassigned) [Example 387, 1-(4-(3-fluoropyridin-4-yl)phenyl)-3-(1-(3-methoxyphenyl)ethyl)-1H-imidazol-2(3H)-one] | 20.1 to 200
18 | COc1nc(-n2ccn(Cc3cccc(F)c3OC)c2=O)ccc1-c1cn[nH]c1 [Example 416, 1-(3-fluoro-2-methoxybenzyl)-3-(6-methoxy-5-(1H-pyrazol-4-yl)pyridin-2-yl)-1H-imidazol-2(3H)-one] | 2.1 to 20
19 | COc1c(F)cccc1CN1CCN(c2ccc(-c3cn[nH]c3)cc2)C1=O [Example 264, 1-(4-(1H-pyrazol-4-yl)phenyl)-3-(3-fluoro-2-methoxybenzyl)imidazolidin-2-one] | 20.1 to 200
20 | COc1cccc(C(C)N2CCN(c3ccc(-c4cn[nH]c4)cn3)C2=O)c1 (single isomer, unassigned) [Example 460, 1-(5-(1H-pyrazol-4-yl)pyridin-2-yl)-3-(1-(3-methoxyphenyl)ethyl)imidazolidin-2-one] | < 2
21 | Cc1cccc(CN2CCN(c3ccc(-c4cn[nH]c4)cn3)C2=O)c1 [Example 234, 1-(5-(1H-pyrazol-4-yl)pyridin-2-yl)-3-(3-methylbenzyl)imidazolidin-2-one] | 20.1 to 200
22 | COc1cccc(CN2CCN(c3ccc(-c4cn[nH]c4)cn3)C2=O)c1F [Example 427, 1-(5-(1H-pyrazol-4-yl)pyridin-2-yl)-3-(2-fluoro-3-methoxybenzyl)imidazolidin-2-one] | 20.1 to 200
23 | CCc1nc(-n2ccn(C(C)c3ccc(F)c(OC)c3)c2=O)ccc1-c1cn[nH]c1 (single isomer, unassigned) [Example 388, 1-(6-ethyl-5-(1H-pyrazol-4-yl)pyridin-2-yl)-3-(1-(4-fluoro-3-methoxyphenyl)ethyl)-1H-imidazol-2(3H)-one] | 2.1 to 20
24 | COc1ccc(F)c(Cn2ccn(-c3ccc(-c4cn[nH]c4)c(OC)n3)c2=O)c1 [Example 373, 1-(2-fluoro-5-methoxybenzyl)-3-(6-methoxy-5-(1H-pyrazol-4-yl)pyridin-2-yl)-1H-imidazol-2(3H)-one] | < 2
25 | COc1cc(F)cc(C(C)N2CCN(c3ccc(-c4cn[nH]c4)c(OC)n3)C2=O)c1 (single isomer, unassigned) [Example 229, 1-(1-(3-fluoro-5-methoxyphenyl)ethyl)-3-(6-methoxy-5-(1H-pyrazol-4-yl)pyridin-2-yl)imidazolidin-2-one] | 2.1 to 20
26 | COc1nc(N2CCN(Cc3ccc(F)cc3C)C2=O)ccc1-c1cn[nH]c1 [Example 249, 1-(4-fluoro-2-methylbenzyl)-3-(6-methoxy-5-(1H-pyrazol-4-yl)pyridin-2-yl)imidazolidin-2-one] | 20.1 to 200
27 | CCOc1cccc(C(C)n2ccn(-c3ccc(-c4cn[nH]c4)cc3)c2=O)c1 (single isomer, unassigned) [Example 369, 1-(4-(1H-pyrazol-4-yl)phenyl)-3-(1-(3-ethoxyphenyl)ethyl)-1H-imidazol-2(3H)-one] | 2.1 to 20
28 | COc1nc(N2CCN(Cc3cccc(OCC4CC4)c3)C2=O)ccc1-c1cn[nH]c1 [Example 475, 1-(3-(cyclopropylmethoxy)benzyl)-3-(6-methoxy-5-(1H-pyrazol-4-yl)pyridin-2-yl)imidazolidin-2-one] | < 2
